Data: patent US20210300940A1 (Merck Patent GmbH, priority 2018, published 2021)
Counter-ions that a name gives are not always drawn.

Columns and labels:
TLR7 = molecular target: T1, TLR7 (Homo sapiens, UniProt Q9NYK1); assay: HEK/293 TLR7 Cell Assay; assay type: cell-based; conditions: TLR7/NFKb HEK cells, R848 agonist 10 uM final concentration, Steady-Glo readout; read-out: TLR7 potency
T1 construct: expressed in transfected cells; host or cells: HEK/293 cells carrying TLR7 and an NF-kB luciferase reporter
T1 sequence (Q9NYK1 27-1049): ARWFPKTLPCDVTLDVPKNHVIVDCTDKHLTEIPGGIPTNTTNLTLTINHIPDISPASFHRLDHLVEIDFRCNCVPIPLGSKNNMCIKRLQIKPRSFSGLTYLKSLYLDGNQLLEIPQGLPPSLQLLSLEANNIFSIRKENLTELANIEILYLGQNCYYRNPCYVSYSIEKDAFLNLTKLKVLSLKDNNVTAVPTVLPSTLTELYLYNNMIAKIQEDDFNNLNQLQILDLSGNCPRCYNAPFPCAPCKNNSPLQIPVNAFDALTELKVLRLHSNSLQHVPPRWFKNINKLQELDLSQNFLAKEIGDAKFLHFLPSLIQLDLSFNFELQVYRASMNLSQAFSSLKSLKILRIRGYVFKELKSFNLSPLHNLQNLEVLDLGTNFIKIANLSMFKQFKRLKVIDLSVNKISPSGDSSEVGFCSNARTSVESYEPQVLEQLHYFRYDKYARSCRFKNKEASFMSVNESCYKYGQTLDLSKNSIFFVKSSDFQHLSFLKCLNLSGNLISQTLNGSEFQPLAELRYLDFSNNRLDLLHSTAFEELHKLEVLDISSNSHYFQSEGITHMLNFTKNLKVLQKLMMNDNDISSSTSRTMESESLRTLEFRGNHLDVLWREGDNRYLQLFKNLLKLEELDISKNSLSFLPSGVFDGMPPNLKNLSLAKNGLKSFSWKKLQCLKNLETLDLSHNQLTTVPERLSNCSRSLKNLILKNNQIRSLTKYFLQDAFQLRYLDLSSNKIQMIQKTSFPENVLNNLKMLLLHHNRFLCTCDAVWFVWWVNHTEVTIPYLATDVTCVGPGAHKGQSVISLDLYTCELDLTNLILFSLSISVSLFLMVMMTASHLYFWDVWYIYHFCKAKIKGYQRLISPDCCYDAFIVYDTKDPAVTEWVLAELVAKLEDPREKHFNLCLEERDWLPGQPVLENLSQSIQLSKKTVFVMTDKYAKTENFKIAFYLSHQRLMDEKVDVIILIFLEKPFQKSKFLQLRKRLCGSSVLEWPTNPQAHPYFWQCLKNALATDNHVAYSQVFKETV
Protocol: (§1) Example 389: HEK/293 TLR7 Cell Assay Into 384 CulturePlates (Corning 3765) was placed 5000 c/w of TLR7/NFKb HEK cells in 30 uL DMEM without Phenol red (gibco #31053-028) and 10% heat inactivated fetal bovine serum, 10% penicillin-streptomycin, and 2 mM L-Glutamine. The cells were incubated for 24 h at 37° C., 10% carbon dioxide and 90% relative humidity. 3 uL of controls, standards, and compounds were dispensed into wells, incubated for 30 min then 3 uL of R848 agonist (10 uM final concentration) was added in 20 mM Hepes. After incubation for 5 hours, they were allowed to stand at room temperature for 15 min. To this was added 10 uL of Steady-Glo substrate reagent and shake assay plate for 5 min at 1500 rpm. The assay plate was allowed to sit for 30 min at room temperature and then the plate was read on EnVision.

TLR8 = molecular target: T2, TLR8 (Homo sapiens, UniProt Q9NR97); assay: HEK/293 TLR8 Cell Assay; assay type: cell-based; conditions: HEK cells, R848 agonist 30 uM final concentration, Steady-Glo readout; read-out: TLR8 potency
T2 construct: expressed in transfected cells; host or cells: HEK/293 reporter cells (NF-kB luciferase)
T2 sequence (Q9NR97 27-1041): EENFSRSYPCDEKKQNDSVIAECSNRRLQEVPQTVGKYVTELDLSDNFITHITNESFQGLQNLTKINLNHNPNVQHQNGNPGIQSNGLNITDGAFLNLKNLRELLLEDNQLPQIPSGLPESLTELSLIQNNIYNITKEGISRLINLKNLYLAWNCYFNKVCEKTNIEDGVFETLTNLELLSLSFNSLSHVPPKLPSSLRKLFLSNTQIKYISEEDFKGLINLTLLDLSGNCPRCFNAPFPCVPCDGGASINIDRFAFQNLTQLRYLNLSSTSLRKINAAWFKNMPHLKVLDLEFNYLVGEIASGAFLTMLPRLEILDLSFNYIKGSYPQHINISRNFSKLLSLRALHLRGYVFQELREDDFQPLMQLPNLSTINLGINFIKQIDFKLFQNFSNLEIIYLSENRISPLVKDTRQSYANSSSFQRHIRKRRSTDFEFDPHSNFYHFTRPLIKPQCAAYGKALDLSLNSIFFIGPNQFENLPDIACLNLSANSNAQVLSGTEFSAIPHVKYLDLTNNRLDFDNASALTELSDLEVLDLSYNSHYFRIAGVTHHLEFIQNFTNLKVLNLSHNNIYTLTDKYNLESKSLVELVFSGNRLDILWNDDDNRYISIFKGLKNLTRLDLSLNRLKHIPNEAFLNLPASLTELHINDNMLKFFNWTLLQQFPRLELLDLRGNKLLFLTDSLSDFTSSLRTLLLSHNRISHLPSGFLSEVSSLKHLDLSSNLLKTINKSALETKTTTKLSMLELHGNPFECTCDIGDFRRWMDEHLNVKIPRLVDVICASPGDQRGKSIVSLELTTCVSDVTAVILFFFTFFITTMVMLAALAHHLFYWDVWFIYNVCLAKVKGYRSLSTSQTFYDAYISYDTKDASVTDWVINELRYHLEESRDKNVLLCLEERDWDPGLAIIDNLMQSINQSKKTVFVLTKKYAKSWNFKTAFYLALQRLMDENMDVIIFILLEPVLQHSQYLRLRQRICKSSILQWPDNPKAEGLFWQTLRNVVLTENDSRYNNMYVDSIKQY
Protocol: as §1, with “Example 390:” for “Example 389:”, “HEK/293 TLR8” for “HEK/293 TLR7”, “serum, 1%” for “serum, 10%”, “agonist (30” for “agonist (10”

| Structure (SMILES) | IC50 (TLR7) [nM] | IC50 (TLR8) [nM] |
| --- | --- | --- |
| C[C@@H]1CN(c2cnc(C#N)c3ncccc23)C[C@H](C(=O)NC[C@@H]2CN(C)CCO2)O1 [Example 275, (2R,6R)-4-(8-Cyano-[1,7]naphthyridin-5-yl)-6-methyl-morpholine-2-carboxylic acid ((R)-4-methyl-morpholin-2-ylmethyl)-amide] | < 75 | < 75 |
| Cc1c(F)cc(N2C[C@@H](C)O[C@@H](C(=O)N[C@H]3CNC[C@H]3F)C2)c2cccnc12 [Example 298, (2R,6R)-4-(7-Fluoro-8-methyl-quinolin-5-yl)-6-methyl-morpholine-2-carboxylic acid ((3S,4R)-4-fluoro-pyrrolidin-3-yl)-amide] | < 75 | < 75 |
| C[C@H]1C[C@@H](N)CN(c2cnc(C#N)c3nccnc23)C1 [Example 187, 8-((3R,5S)-3-Amino-5-methyl-piperidin-1-yl)-pyrido[3,4-b]pyrazine-5-carbonitrile hydrochloride] | < 75 | < 75 |
| C[C@@H]1CN(c2ccc(C#N)c3nccnc23)C[C@H](CN2CCC(F)(C(=O)O)CC2)O1 [Example 228, 1-[(2S,6R)-4-(8-Cyano-quinoxalin-5-yl)-6-methyl-morpholin-2-ylmethyl]-4-fluoro-piperidine-4-carboxylic acid] | < 75 | < 75 |
| C[C@@H]1CN(c2ccc(C#N)c3nccnc23)C[C@H](C(=O)NCCCS(C)(=O)=O)O1 [Example 260, (2R,6R)-4-(8-cyanoquinoxalin-5-yl)-N-(3-methanesulfonylpropyl)-6-methylmorpholine-2-carboxamide] | 75 to 150 | > 150 |
| C[C@@H]1CN(c2ccc(C#N)c3nccnc23)C[C@H](C(=O)NCCN2CCOCC2)O1 [Example 265, (2R,6R)-4-(8-cyanoquinoxalin-5-yl)-6-methyl-N-[2-(morpholin-4-yl)ethyl]morpholine-2-carboxamide] | < 75 | < 75 |
| O=C(CC1(F)CCNCC1)N[C@@H]1C[C@H](C(F)(F)F)CN(c2ccc(C(F)(F)F)c3ncccc23)C1 [Example 117, 2-(4-fluoropiperidin-4-yl)-N-[(3R,5S)-5-(trifluoromethyl)-1-[8-(trifluoromethyl)quinolin-5-yl]piperidin-3-yl]acetamide] | < 75 | < 75 |
| C[C@@H]1CN(c2ccc(C#N)c3nccnc23)C[C@H](C(=O)NC[C@@H](O)C(F)(F)F)O1 [Example 250, (2R,6R)-4-(8-Cyano-quinoxalin-5-yl)-6-methyl-morpholine-2-carboxylic acid ((R)-3,3,3-trifluoro-2-hydroxy-propyl)-amide] | < 75 | < 75 |
| N#Cc1ncc(N2C[C@H](N)C[C@H](C(F)(F)F)C2)c2cccnc12 [Example 9, 5-((3R,5S)-3-Amino-5-trifluoromethyl-piperidin-1-yl)-[1,7]naphthyridine-8-carbonitrile] | < 75 | 75 to 150 |
| C[C@@H]1CN(c2cnc(C#N)c3ncccc23)C[C@H](CN2CCC(N)C(F)(F)C2)O1 (stereo partly drawn) [Example 369, 5-[(2S,6R)-2-(4-Amino-3,3-difluoro-piperidin-1-ylmethyl)-6-methyl-morpholin-4-yl]-[1,7]naphthyridine-8-carbonitrile] | < 75 | < 75 |
| C[C@H]1C[C@@H](NC(=O)CCC2CCN(C)CC2)CN(c2cnc(C#N)c3nccnc23)C1 [Example 189, N-[(3R,5S)-1-(5-Cyano-pyrido[3,4-b]pyrazin-8-yl)-5-methyl-piperidin-3-yl]-3-(1-methyl-piperidin-4-yl)-propionamide] | 75 to 150 | < 75 |
| C[C@H]1C[C@@H](NCCC(N)=O)CN(c2ccc(C(F)(F)F)c3nccnc23)C1 [Example 22, 3-[(3R,5S)-5-Methyl-1-(8-trifluoromethyl-quinoxalin-5-yl)-piperidin-3-ylamino]-propionamide] | < 75 | < 75 |
| C[C@@H]1CN(c2cnc(C#N)c3ncccc23)C[C@H](CN2CCN(CCO)CC2)O1 [Example 372, 5-{(2S,6R)-2-[4-(2-Hydroxy-ethyl)-piperazin-1-ylmethyl]-6-methyl-morpholin-4-yl}-[1,7]naphthyridine-8-carbonitrile] | 75 to 150 | < 75 |
| C[C@@H]1CN(c2ccc(C#N)c3nccnc23)C[C@H](CN2CCC(O)CC2)O1 [Example 219, 8-[(2S,6R)-2-(4-Hydroxy-piperidin-1-ylmethyl)-6-methyl-morpholin-4-yl]-quinoxaline-5-carbonitrile] | 75 to 150 | > 150 |
| C[C@@H](C(=O)N[C@@H]1C[C@H](C(F)(F)F)CN(c2ccc(C(F)(F)F)c3ncccc23)C1)N1CCN(C)CC1 (single isomer, unassigned) [Example 95] | < 75 | < 75 |
| C[C@H]1C[C@@H](NS(=O)(=O)NC2CCN(C)CC2)CN(c2ccc(C(F)(F)F)c3ncccc23)C1 [Example 200, N-(1-methylpiperidin-4-yl){[(3R,5S)-5-methyl-1-[8-(trifluoromethyl)quinolin-5-yl]piperidin-3-yl]amino}sulfonamide] | < 75 | < 75 |
| C[C@H]1C[C@@H](NC(=O)[C@H](O)C(C)(C)O)CN(c2ccc(C#N)c3nccnc23)C1 [Example 162, (R)—N-[(3R,5S)-1-(8-Cyano-quinoxalin-5-yl)-5-methyl-piperidin-3-yl]-2,3-dihydroxy-3-methyl-butyramide] | 75 to 150 | > 150 |
| C[C@H]1C[C@@H](NC(=O)[C@H](C)N2CCN(C)CC2)CN(c2ccc(C(F)(F)F)c3ncccc23)C1 (single isomer, unassigned) [Example 93] | < 75 | < 75 |
